# Where two headings read alike, the source gives them in different places.
# Legend:
# C. neoformans KN99 = test: Antifungal MIC; type: cell-based
# [1] = Log P determination (n-octanol/water, FAAS)
# Procedure, shortened: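 Shake-flask partition between mutually saturated n-octanol and water; Au in each phase quantified by flame AAS against aqueous Au-standard and n-octanol calibration curves. Compound shaken ~4 h in water then 1 h with octanol, or 3-4 h in both phases then diluted and shaken 1 h; log P = log([oct]/[water]).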
# Gram-negative strains = test: In vitro antimicrobial activities, Gram-negative strains taken together; type: cell-based; details: Gram-negative strains tested
# Protocol: Antibacterial assay. The minimum inhibitory concentrations (MICs) and the minimum bactericidal concentrations (MBCs) were determined by the broth microdilution method as described in the CLSI (The Clinical & Laboratory Standards Institute) guidelines (Performance standards for antimicrobial susceptibility testing: Clinical and Laboratory Standards Institute (CLSI), Twenty-Fifth informational supplement. Document M100-S25: […]; Vol. 35). All bacterial strains were cultured in cation-adjusted Muller Hinton broth (CAMHB) up to log-phase and then diluted to give a concentration of 7.5×10^5 CFU/mL. The gold complexes were dissolved in DMSO or water as stock solutions, which were then serially diluted two-fold in a 96-well plate. Aliquots (100 μL) of the dilutions were mixed with equal volumes of the bacterium suspension in a 96 well plate (in triplicates). The plates were incubated at 37° C. for 18 h without shaking. Negative and positive controls were included in the same well plate with wells having the culture medium only and bacteria solution only, respectively. The sample concentration that gave inhibition values above 90% were determined as MICs as calculated from absorbance values at 600 nm (OD600) obtained using a Tecan SPARK IOM plate reader. […] The sample concentration that gave no colony formed on agar plates were determined as MBCs. […]
# [2] = system: C. neoformans ATCC 208821; test: Antifungal MIC; type: cell-based; details: for MIC: C. neoformans ATCC 208821
# C. albicans ATCC 90028 = test: Antifungal MIC; type: cell-based
# MRSA = test: Antimicrobial screening of auranofin analogs; type: cell-based
# Description: (§1) Auranofin analogs were synthesized by varying the structure of the thio-sugar ligand and the phosphine ligands. These analogs were screened for antimicrobial activity against 5 key ESKAPE pathogens and E. coli. (Table 3). The “ESKAPE” pathogens consist of six pathogens with growing multidrug resistant virulence: Enterococcus faecium (gram-positive), Staphylococcus aureus (gram-positive), Klebsiella pneumoniae (gram-negative), Acinetobacter (gram-negative), Pseudomonas aeruginosa (gram-negative) and Eterobacter (gram-negative). According to the data from the Centers for Disease Control and Prevention (CDC), two-thirds of all clinical infections are caused by these six ESKAPE bacteria.
# K. pneumoniae = test: Antimicrobial screening of auranofin analogs; type: cell-based
# Description: as §1
# E. faecalis = test: Antimicrobial screening of auranofin analogs; type: cell-based
# Description: as §1
# S. aureus = test: Antimicrobial screening of auranofin analogs; type: cell-based
# Description: as §1
# P. aeruginosa = test: Antimicrobial screening of auranofin analogs; type: cell-based
# Description: as §1
# E. cloacae = test: Antimicrobial screening of auranofin analogs; type: cell-based
# Description: as §1
Substance,MIC (C. neoformans KN99) [µg/mL],Log P [1],MIC [2] [µg/mL],MIC (C. albicans ATCC 90028) [µg/mL],also measured
(2-Aminobenzenethiolato)(triethylphosphine) gold(I) [Compound 19],2,0.61,,,
"(2,3,4,6-Tetra-O-acetyl-1-thio-β-D-glucopyranosato) (triethylphosphine) gold(I) [Compound 1, reference compound]",16,,8,>32,"activity in words (Gram-negative strains): no activity; antifungal activity in words ([2]; C. neoforman, strain not named): moderate antifungal activity; Log P ([1]; n-octanol/water, gold by FAAS): 0.56; bactericidal activity at the lowest tested concentration (MRSA): ≤ 0.25 µg/mL; activity in words (K. pneumoniae): lacked significant activity; bactericidal activity at the lowest tested concentration (E. faecalis): ≤ 0.5 µg/mL; bactericidal activity at the lowest tested concentration (S. aureus): ≤ 0.5 µg/mL; activity in words (P. aeruginosa): lacked significant activity; activity in words (E. cloacae): lacked significant activity"
(2-Mercaptoethanolato)(trimethylphosphine) gold (I) [Compound 27],,−0.15,,,
"[2,3,4,6-Tetra-O-acetyl-α-D-glucopyranosyl (1→4)-2,3,6-tri-O-acetyl-1-thio-β-D-glucopyranosato](triethylphosphine) gold(I) [Compound 5]",,0.45,>32,>32,

# — US20210198284A1, “GOLD COMPOSITIONS AND METHODS OF USE THEREOF” (THE UNIVERSITY OF MASSACHUSETTS, priority 2018, published 2021)
